From ChEMBL document CHEMBL1141632, “Synthesis and evaluation of novel 3,4,6-substituted 2-quinolones as FMS kinase inhibitors” (Bioorg Med Chem Lett, 2008)
pIC50: −log10 of the molar value. Active and inactive are the calls of the source. The calls are words filed in the database; no cut-off is given here.

Experiments:
[1] = Inhibition of CSF1-induced human BMDM cell proliferation; format: functional, cell-based
[2] = molecular target: T1, Receptor-type tyrosine-protein kinase FLT3 (Homo sapiens, UniProt P36888); assay: Inhibition of FLT3
T1 sequence (P36888 whole entry): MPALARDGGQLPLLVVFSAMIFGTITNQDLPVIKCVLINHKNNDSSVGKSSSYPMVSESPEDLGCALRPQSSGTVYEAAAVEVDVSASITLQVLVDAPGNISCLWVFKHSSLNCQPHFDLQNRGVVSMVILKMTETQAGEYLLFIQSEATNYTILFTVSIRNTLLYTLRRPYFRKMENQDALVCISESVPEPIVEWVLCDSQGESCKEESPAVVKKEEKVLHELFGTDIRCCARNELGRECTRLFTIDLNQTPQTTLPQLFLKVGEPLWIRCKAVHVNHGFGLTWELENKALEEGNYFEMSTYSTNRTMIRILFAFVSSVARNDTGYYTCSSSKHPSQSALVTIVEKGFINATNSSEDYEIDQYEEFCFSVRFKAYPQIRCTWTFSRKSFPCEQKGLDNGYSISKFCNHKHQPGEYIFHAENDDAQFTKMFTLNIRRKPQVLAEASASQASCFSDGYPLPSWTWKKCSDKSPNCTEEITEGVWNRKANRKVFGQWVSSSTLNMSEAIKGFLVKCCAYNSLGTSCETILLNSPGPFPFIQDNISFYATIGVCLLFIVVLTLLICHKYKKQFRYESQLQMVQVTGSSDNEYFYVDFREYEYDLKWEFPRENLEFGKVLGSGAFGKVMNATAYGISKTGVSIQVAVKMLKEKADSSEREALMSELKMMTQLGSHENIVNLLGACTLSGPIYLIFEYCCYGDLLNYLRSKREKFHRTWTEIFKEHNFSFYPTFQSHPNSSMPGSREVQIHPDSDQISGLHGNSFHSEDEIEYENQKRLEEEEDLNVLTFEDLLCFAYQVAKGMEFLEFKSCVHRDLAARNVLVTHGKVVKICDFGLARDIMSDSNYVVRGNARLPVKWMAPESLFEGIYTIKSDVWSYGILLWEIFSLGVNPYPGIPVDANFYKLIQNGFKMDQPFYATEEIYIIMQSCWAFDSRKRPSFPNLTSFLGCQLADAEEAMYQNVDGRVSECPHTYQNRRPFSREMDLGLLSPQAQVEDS

[3] = molecular target: Mast/stem cell growth factor receptor Kit (Homo sapiens, UniProt P10721); assay: Inhibition of KIT
[4] = molecular target: Platelet-derived growth factor receptor beta (Homo sapiens, UniProt P09619); assay: Inhibition of PDGFRbeta
Mus musculus [5] = assay: Inhibition of FMS in B6C3F1 mouse assessed as reduction in CSF1-induced C-fos levels at 5 mg/kg, po; format: functional, organism-based; parameters: dose 5 mg/kg
Mus musculus [6] = assay: Inhibition of FMS in B6C3F1 mouse assessed as reduction in CSF1-induced C-fos levels at 20 mg/kg, po; format: functional, organism-based; parameters: dose 20 mg/kg
Mus musculus [7] = assay: Inhibition of FMS in B6C3F1 mouse assessed as reduction in CSF1-induced C-fos levels at 50 mg/kg, po; format: functional, organism-based; parameters: dose 50 mg/kg
[8] = Half life in rat at 2 mg/kg, iv and 10 mg/kg, po; format: ADME, organism-based; conditions: in vivo
[9] = Cmax in rat at 2 mg/kg, iv and 10 mg/kg, po; format: ADME, organism-based; conditions: in vivo
[10] = Volume of distribution in rat at 2 mg/kg, iv and 10 mg/kg, po; format: ADME, organism-based; conditions: in vivo
[11] = Clearance in rat at 2 mg/kg, iv and 10 mg/kg, po; format: ADME, organism-based; conditions: in vivo
[12] = Oral bioavailability in rat at 10 mg/kg; format: ADME, organism-based; conditions: in vivo
[13] = molecular target: T2, Macrophage colony-stimulating factor 1 receptor (Homo sapiens, UniProt P07333); assay: Inhibition of human cytoplasmic macrophage colony-stimulating factor 1 receptor at 5 uM by fluorescence polarization
[14] = molecular target: T2, Macrophage colony-stimulating factor 1 receptor; assay: Inhibition of human cytoplasmic macrophage colony-stimulating factor 1 receptor by fluorescence polarization

T2 sequence (P07333 whole entry): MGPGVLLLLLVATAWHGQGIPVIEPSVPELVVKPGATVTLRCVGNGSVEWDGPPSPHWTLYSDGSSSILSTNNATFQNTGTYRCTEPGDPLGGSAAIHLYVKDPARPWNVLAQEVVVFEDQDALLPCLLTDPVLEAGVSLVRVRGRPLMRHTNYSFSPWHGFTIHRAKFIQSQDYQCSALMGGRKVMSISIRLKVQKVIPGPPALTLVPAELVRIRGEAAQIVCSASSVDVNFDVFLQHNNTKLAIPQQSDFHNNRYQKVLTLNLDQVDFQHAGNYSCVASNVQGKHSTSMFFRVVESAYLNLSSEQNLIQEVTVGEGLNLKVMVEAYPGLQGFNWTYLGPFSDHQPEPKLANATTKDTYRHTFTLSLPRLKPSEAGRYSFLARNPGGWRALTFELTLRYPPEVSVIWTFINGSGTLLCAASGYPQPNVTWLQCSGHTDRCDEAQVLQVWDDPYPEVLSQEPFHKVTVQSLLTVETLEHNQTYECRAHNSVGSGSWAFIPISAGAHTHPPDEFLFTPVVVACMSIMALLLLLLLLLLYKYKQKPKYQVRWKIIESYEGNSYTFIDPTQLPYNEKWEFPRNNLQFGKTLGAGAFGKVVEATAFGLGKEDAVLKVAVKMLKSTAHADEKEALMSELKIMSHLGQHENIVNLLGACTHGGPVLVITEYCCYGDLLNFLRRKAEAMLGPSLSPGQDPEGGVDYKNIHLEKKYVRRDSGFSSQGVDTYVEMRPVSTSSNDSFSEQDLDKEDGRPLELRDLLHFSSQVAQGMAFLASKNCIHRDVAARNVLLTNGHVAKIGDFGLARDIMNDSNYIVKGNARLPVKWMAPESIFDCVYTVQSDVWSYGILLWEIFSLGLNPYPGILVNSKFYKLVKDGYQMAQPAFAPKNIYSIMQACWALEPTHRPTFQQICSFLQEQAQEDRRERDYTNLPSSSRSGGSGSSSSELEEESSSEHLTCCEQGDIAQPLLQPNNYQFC
Sequence of Platelet-derived growth factor receptor beta (P09619 whole entry): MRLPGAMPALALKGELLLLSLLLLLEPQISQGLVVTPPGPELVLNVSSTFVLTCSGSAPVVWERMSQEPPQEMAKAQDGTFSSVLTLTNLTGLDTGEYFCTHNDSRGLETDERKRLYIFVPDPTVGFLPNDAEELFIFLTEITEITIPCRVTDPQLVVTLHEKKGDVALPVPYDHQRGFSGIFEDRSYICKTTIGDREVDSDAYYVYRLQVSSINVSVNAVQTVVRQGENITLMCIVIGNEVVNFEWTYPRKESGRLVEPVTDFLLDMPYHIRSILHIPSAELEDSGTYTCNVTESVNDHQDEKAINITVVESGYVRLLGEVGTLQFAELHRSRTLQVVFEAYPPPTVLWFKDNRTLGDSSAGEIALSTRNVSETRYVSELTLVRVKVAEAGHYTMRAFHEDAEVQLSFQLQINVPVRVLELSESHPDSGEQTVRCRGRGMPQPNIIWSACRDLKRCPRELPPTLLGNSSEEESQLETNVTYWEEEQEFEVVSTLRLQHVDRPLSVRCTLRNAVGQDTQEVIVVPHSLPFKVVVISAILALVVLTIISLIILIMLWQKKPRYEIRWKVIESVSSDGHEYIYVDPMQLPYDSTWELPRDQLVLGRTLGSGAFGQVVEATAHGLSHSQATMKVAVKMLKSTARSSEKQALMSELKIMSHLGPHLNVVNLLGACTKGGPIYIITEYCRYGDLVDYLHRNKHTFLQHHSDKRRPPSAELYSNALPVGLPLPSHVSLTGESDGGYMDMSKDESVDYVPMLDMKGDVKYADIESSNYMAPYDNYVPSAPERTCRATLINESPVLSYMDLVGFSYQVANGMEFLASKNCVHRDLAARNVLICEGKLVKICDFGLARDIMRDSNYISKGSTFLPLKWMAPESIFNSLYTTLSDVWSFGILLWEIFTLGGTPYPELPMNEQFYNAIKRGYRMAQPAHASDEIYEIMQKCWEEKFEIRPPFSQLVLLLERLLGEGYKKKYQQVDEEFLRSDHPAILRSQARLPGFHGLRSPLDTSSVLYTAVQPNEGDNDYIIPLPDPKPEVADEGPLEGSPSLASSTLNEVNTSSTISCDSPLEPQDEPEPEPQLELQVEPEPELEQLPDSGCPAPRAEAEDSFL
Sequence of Mast/stem cell growth factor receptor Kit (P10721 whole entry): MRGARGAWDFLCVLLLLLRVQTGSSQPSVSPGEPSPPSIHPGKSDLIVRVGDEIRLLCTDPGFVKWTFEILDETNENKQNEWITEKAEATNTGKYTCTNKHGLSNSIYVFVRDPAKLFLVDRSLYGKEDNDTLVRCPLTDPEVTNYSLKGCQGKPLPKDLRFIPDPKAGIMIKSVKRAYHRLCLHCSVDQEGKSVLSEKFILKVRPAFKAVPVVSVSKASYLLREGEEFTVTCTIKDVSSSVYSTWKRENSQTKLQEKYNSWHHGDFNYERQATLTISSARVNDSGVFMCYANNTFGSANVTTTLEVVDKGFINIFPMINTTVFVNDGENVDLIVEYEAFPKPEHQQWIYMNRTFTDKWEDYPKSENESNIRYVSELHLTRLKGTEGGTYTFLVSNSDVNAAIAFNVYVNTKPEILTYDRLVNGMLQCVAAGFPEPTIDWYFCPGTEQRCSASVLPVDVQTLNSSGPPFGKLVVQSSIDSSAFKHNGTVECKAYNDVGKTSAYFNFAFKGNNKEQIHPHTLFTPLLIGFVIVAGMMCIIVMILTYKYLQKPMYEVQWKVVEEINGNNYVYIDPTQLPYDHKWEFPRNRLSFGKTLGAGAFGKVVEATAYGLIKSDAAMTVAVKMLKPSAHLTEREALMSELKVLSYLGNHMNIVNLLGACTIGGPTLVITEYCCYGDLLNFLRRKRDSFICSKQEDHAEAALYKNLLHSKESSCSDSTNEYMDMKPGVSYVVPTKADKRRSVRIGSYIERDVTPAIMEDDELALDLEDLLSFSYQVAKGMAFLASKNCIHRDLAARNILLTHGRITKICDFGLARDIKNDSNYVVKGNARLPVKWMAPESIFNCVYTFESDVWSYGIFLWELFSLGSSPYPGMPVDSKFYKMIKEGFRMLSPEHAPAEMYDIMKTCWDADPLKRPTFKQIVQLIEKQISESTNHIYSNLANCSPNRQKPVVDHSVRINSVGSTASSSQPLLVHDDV

CCc1ccc(-c2c(-c3cnc(C)[nH]3)c(=O)[nH]c3ccc(Cl)cc23)cc1
pIC50 [1]: 7.55 | pIC50 [2]: 7.47 | pIC50 [3]: 7.17 | pIC50 [4]: < 6.00

CCc1ccc(-c2c(-c3cnc(C)[nH]3)c(=O)[nH]c3ccc(C#N)cc23)cc1
Activity (Mus musculus [5]): Active | Activity (Mus musculus [6]): Active | Activity (Mus musculus [7]): Active | pIC50 [1]: 8.30

CCc1ccc(-c2c(-c3c[nH]c(C)n3)c(=O)[nH]c3ccc(C#N)cc23)cc1
pIC50 [2]: 7.33 | pIC50 [3]: 6.77 | pIC50 [4]: < 6.00 | half-life [8]: 64 min | Cmax [9]: 317 ng/mL | Vd [10]: 8.6 L/kg | clearance [11]: 93 mL/min/kg | bioavailability [12]: 56%

Cc1cc(-c2c(-c3ccccc3)c3cnccc3[nH]c2=O)on1
inhibition [13]: 8%

Cc1cc(-c2c(-c3ccccc3)c3cc(N)ccc3[nH]c2=O)on1
pIC50 [14]: < 5.30

Cc1cc(-c2c(-c3ccccc3)c3ccccc3[nH]c2=O)on1
pIC50 [14]: < 5.30

Cc1cc(-c2c(-c3ccccc3)c3ncccc3[nH]c2=O)on1
pIC50 [14]: < 4.70
